In US7071182B2, “Antagonists of melanin concentrating hormone effects on the melanin concentrating hormone receptor” (Abbott Laboratories, priority 2003, dated 2006):

Assay: Pharmacokinetic drug levels in whole brain after 10 mpk oral dose in DIO mice
Assay type: in vivo
Conditions: harvested 0.5-24 h after the dose

O=C(Nc1ccc(Oc2ccccc2)cc1)Nc1ccc2c(cnn2CCN2CCCC2)c1 [Example 24, N-(4-phenoxyphenyl)-N′-[1-(2-pyrrolidin-1-ylethyl)-1H-indazol-5-yl]urea]
Brain Conc. AUC: 1428 ng·h/g
